# Data published in patent US9618501B2, “Three-dimensional fibrous scaffolds for cell culture” (University of South Florida, priority 2012, dated 2017).
# Like-named read-outs stand apart in the source and are kept apart here.
# Columns and labels:
# Type in all cases: cell-based
# LLC spheroids [1] = assay: Drug efficacy on LLC spheroids grown on 3P scaffold (spheroid size and number)
# Method: Drug efficacy analysis using 3P scaffold: To assess the ability of the 3P scaffold to monitor therapeutic efficacy to treat tumors, LLC spheroids were treated with different concentrations of the PI3K pathway inhibitor Ly294002 (1.0 μM, 0.1 μM, and 0.01 μM) and spheroid viability was assessed over a time period of 24 hours to 96 hours.
# MCF-7 cells [2] = assay: Dose dependent cytotoxic response of MCF-7 cells, monolayer vs 3P scaffold (calcein AM/ethidium live cell count); conditions: for IC50: Homo sapiens, MCF7, 48 h, 48 hours of drug; for IC50 for 3P cultures relative to monolayer cultures: MCF7 cells, 3P scaffold vs monolayer
# Method: MCF cells (7×10^3) were cultured on monolayer and 3P scaffold for 7 days then treated with different concentration of LY294002 and U0126 for 48 hours. Cells were stained with calcein/am and ethydium bromide then counted. Mean percentage of live cells (+/−SEM) were plotted as a function of drug concentration on and represents 4 replicates in 3 separate experiments. Box data points indicate monolayer and diamond data points indicate 3P scaffold.
# To further explore the utility of the 3P scaffold as a tool to monitor chemotherapeutic prevention of EMT, MCF-7 breast cancer cells were treated with Doxorubicin and Ly294002 and U0126 inhibitors to prevent spheroid formation and examined for a differential dose-dependent response which was compared with response in monolayer 2D culture. […] The IC-50 of a drug is defined as the […] of a drug to inhibit biological or biochemical function.
# [3] = system: biopsy induced tumoroids (BITs); assay: Chemosensitivity of biopsy induced tumoroids (BITs) from FNAs of implanted LLC1 mouse tumors on 3P scaffolds; conditions: for IC50: Mus musculus, LLC1
# Method: FIG. 17 illustrates biopsy tumoroids (day 2) treated with 1 μM each of LY294002 or U0126 for 3 days. The average size of biopsy tumoroids on 3P scaffolds (n=10 controls, 55 LY294002 and 50 U0126) is shown.
# Culturing fine needle aspirates (FNAs) of implanted mouse tumors: LLC1 cells (5×10^5) were subcutaneously injected into the flanks of wild type C57BL/6 mice (National Cancer Institute). Tumor formation was monitored for 2 weeks after which tumor biopsies were collected by fine needle aspiration. Briefly, a 23-gauge needle was inserted into the tumor using a rotating motion and the tissue samples were flushed from the needle by attaching a syringe filled with tissue culture medium and expelling the contents into a sterile tube. This process was repeated twice. The three collected tumor samples were pooled and single cell suspensions were cultured on the scaffold.
# Chemosensitivity of tumor biopsies grown on 3P scaffolds: To determine if the 3P scaffold can be utilized to culture tumor biopsies, single-cell suspensions of FNAs of implanted mouse tumors were cultured on 3P scaffolds. […] In addition to tumor cells, BITs were examined for the presence of stromal cells that are typical of in vivo tumor microenvironment (TME) (Mallela et al., (2013) Stem Cells 31: 1321-1329) by immunostaining with antibodies to respective cell surface markers.
# To determine if the biopsy tumoroids cultured on 3P scaffolds can be utilized to assess drug sensitivity, FNA tumoroids were cultured in the presence or absence of the inhibitors, LY294002 and U0126.
# LLC spheroids [4] = assay: EMT marker expression in fully formed LLC spheroids treated at day 4
# Method: (§1) To determine if treatment by these agents would deregulate EMT in fully formed spheroids, the same concentration of drugs were administered to LLC spheroids cultured at day 4.
# MCF-7 cells [5] = assay: Inhibition of spheroid formation and EMT markers in MCF-7 cells on 3P scaffold
# Method: as §1
# tumor cells = assay: Doxorubicin sensitivity of tumor cells grown on 3PC scaffolds vs monolayer
# Method: It was also determined that PLGA naked scaffolds are biocompatible and show increased tumorigenesis potential. From these observations, one can conclude that these 3D matrices can be used as a model to study cancer.
# [6] = 0.01 μM, 24 hours post treatment
# [7] = 0.01 μM, 96 hours post treatment
# [8] = 0.1 μM, 24 hours post treatment
# [9] = 1.0 μM, 24 hours post treatment
# [10] = MCF-7 on 3P scaffold, read-out: IC-50
# [11] = MCF-7 on monolayer, read-out: IC-50
compound,measurement,setting,value
O=c1cc(N2CCOCC2)oc2c(-c3ccccc3)cccc12 [LY294002],average decrease in spheroid size compared to untreated spheroids,LLC spheroids [1]; [6],17+/−12.5%
same,decrease in spheroid numbers,LLC spheroids [1]; [6],14.5+/−8.52%
same,decrease in spheroid numbers,"LLC spheroids [1]; 0.01 μM, 48 hours",40.3+/−2.44%
same,average decrease in spheroid size,"LLC spheroids [1]; 0.01 μM, 48 hours post treatment",28.9+/−9.3%
same,average decrease in spheroid size,LLC spheroids [1]; [7],63+/−5.9%
same,decrease in spheroid numbers,LLC spheroids [1]; [7],93.3+/−0.48%
same,average decrease in spheroid size compared to untreated spheroids,LLC spheroids [1]; [8],22.0+/−10.9%
same,decrease in spheroid numbers,LLC spheroids [1]; [8],26.8+/−4.38%
same,decrease in spheroid numbers,"LLC spheroids [1]; 0.1 μM, 48 hours",52.6+/−2.93%
same,average decrease in spheroid size,"LLC spheroids [1]; 0.1 μM, 48 hours post treatment",32.6+/−5.97%
same,average decrease in spheroid size compared to untreated spheroids,LLC spheroids [1]; [9],37.3+/−8.4%
same,decrease in spheroid numbers,LLC spheroids [1]; [9],37.4+/−3.8%
same,decrease in spheroid numbers,"LLC spheroids [1]; 1.0 μM, 48 hours",61.7+/−2.92%
same,average decrease in spheroid size,"LLC spheroids [1]; 1.0 μM, 48 hours post treatment",51.2+/−6.73%
same,IC50,MCF-7 cells [2]; [10],1150 nM
same,IC50,MCF-7 cells [2]; [11],130 nM
same,IC50 for 3P cultures relative to monolayer cultures,MCF-7 cells [2],10 fold
same,IC50,"[3]; biopsy tumoroids (BITs) on 3P scaffold, read-out: IC50",> 1000 nM
N#CC(=C(/N)Sc1ccccc1N)/C(C#N)=C(\N)Sc1ccccc1N [U0126],vimentin and E-cadherin expression (EMT inhibition),LLC spheroids [4],lack of vimentin expression and a concomitant expression of E-cadherin
same,spheroid formation and proliferation on 3P scaffolds,"MCF-7 cells [5]; MCF-7 treated after 24 hours of culture, observed on day 4",prevented spheroid formation and proliferation
same,vimentin and E-cadherin expression,MCF-7 cells [5]; cells on 3P scaffold treated after 24 hours of culture,down regulating vimentin while maintaining E-cadherin expression
same,IC50,MCF-7 cells [2]; MCF-7 on 3P scaffold,106 nM
same,IC50,MCF-7 cells [2]; MCF-7 on monolayer,10.6 nM
same,IC50 for 3P cultures relative to monolayer cultures,MCF-7 cells [2],100 fold
same,growth of BITs,[3]; FNA tumoroids on 3P scaffold cultured with inhibitor,decreases in tumoroid size
same,IC50,[3],> 1000 nM
COc1cccc2c1C(=O)c1c(O)c3c(c(O)c1C2=O)C[C@@](O)(C(=O)CO)C[C@@H]3O[C@H]1C[C@H](N)[C@H](O)[C@H](C)O1 [doxorubicin],IC50,MCF-7 cells [2]; [10],12000 nM
same,IC50,MCF-7 cells [2]; [11],600 nM
same,sensitivity of tumor cells compared to cells grown on monolayer,tumor cells,less sensitive
